Among the data in US7767681B2, “2-Carbamide-4-phenylthiazole derivatives, preparation thereof and therapeutic use thereof” (sanofi-aventis, priority 2004, dated 2010) are IC50 and melting point values, retold here.

Counter-ions that a name gives are not always drawn. Like-named read-outs stand apart in the source and are kept apart here. Bounds are passed on as bounds.

For one series, the target named is T1, human CCR2b receptor (Homo sapiens, UniProt P41597).
T1 sequence (P41597 1-360 isoform P41597-2): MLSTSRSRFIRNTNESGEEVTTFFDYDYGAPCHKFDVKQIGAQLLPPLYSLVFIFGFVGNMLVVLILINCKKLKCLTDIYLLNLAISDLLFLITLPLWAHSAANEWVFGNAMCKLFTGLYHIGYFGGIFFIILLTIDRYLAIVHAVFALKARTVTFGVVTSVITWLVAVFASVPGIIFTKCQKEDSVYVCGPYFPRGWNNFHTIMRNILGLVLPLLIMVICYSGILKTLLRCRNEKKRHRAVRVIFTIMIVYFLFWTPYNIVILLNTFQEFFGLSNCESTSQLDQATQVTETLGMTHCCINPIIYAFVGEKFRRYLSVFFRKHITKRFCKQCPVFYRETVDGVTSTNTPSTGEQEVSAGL
In words: Inhibitory activity on cells expressing the human CCR2b receptor. It counts as cell-based. As for the experimental part: The inhibitory activity of the compounds according to the invention on cells expressing the human CCR2b receptor was measured.

In series [1] the test system is human THP-1 monocyte cells. Briefly: Inhibition of chemotaxis on human THP-1 monocyte cells. The series is classed as cell-based. Particulars: read-out: IC50 inhibition of chemotaxis (hMCP-1). As to the method: The inhibition of chemotaxis was also measured on human THP-1 monocyte cells (sold by DSMZ—Germany), using a technique adapted from that described by A. Albini et al., Cancer Res., 1987, 47, 3239-3245.
The inhibition of chemotaxis by the compounds according to the invention is a sign of their antagonistic activity on chemokine receptors, and in particular the CCR2b receptor.

The next series deals with HIV-1 Bal virus. In words: Inhibitory activity on PBMCs infected with HIV-1 Bal (reverse transcriptase in supernatant). It counts as cell-based. Particulars: compounds in culture medium for 5 days, read-out: IC50 viral replication (amount of reverse transcriptase in the supernatant). As for the experimental part:
The inhibitory activity of the compounds according to the invention was also measured on PBMCs (peripheral blood mononuclear cells) infected with the HIV-1 Bal virus, according to a technique adapted from that described by V. Dolle et al., J. Med. Chem., 2000, 43, 3949, 3962. According to this technique, the PBMCs are infected with HIV-1 Bal and the compounds to be tested are then added to the culture medium for 5 days. At the end of this exposure, the amount of reverse transcriptase in the supernatant is measured, which correlates with the level of viral replication in the cells.

[2] abbreviates: read-out: IC50 of the activity of the CCR2b receptor.

The IC50 is the concentration at which inhibition is half-maximal. In the case of `CCCc1ccc(OC)c(-c2csc(NC(=O)N3CCN(CCCN(CC)CC)CC3)n2)c1` [Compound No. 14], on human CCR2b receptor (setting [2]), the concentration for half-maximal inhibition (IC50) turned out to be 3.3 nM.
For “hMCP-1: human monocyte chemotactic protein, CC chemokine, natural agonist of the CCR2b receptor [reference compound]”, the figures for the IC50 (with human CCR2b receptor (read-out: IC50 of the activity of the CCR2b receptor (natural agonist hMCP-1)); in series [1]) were 0.57 nM and 6 nM, respectively.
A word on the melting point: it is the temperature, or range, at which the solid turns liquid. `COc1ccc(C2CCCC2)cc1-c1csc(NC(=O)N2CCN(CC3CCN(C)CC3)CC2)n1` [Compound No. 55] gave a melting point of 102 °C. Also, the half-inhibitory concentration (IC50) at human CCR2b receptor (setting [2]) stood at 14 nM.
In the case of `CCCc1ccc(OC)c(-c2csc(NC(=O)N3CCN(CCCN(CC)CC)CC3)n2)c1` (as salt: HCl) [Compound No. 14], the melting point was 145 °C.
Regarding `Cc1cn([C@H]2C[C@H](N=[N+]=[N-])[C@@H](CO)O2)c(=O)[nH]c1=O` [AZT], the IC50 in the series with HIV-1 Bal virus is under 1000 nM.
